Test results published in patent US4251628A, “Substrates for angiotensin converting enzyme” (priority 1978, dated 1981).

Key:
[1] = tested on: angiotensin converting enzyme (ACE); assay: ACE-catalyzed hydrolysis: Km, pH, chloride and buffer dependence; format: biochemical; settings: by substrate
From the text: (§1) Reaction conditions optimal for carrying out an ACE catalyzed hydrolysis of a substrate of the present invention are the same as have been previously described for substrates known in the prior art. Detailed studies of optimal conditions using HipGlyGly as substrate have been reported by Dorer, et al. The pH optimum is approximately 8.0 although greater than 50% maximal activity is obtained in the pH range 7.0-9.0, in the presence of 1 M NaCl. […] The relationship between the chloride requirement and the ionic strength requirement has not been fully characterized. […] Phosphate is inhibitory. Hepes, bicine and barbital buffers are suitable for use but Hepes is preferred because it provides maximum activity. Preferred conditions of buffer composition, ionic strength, pH and temperature are described in Example 1. […] The pH range for usable enzyme activity is from pH 6.5 to pH 8.7, with a broad plateau of maximal activity ranging from pH 7.2 to pH 8.5. Optimal substrate concentration depends upon the apparent Km, for the substrate compared with the Km's of possible competing substances in the sample. A substrate having a relatively low Km, such as ^3 H-benzoylProPheArg (Km 2×10^-4 M) could be suitably used at a concentration less than its Km. A substrate having a higher Km might better be used at a concentration greater than its Km. […] Because its Km is the lowest of any of the substrates of the present invention, ^3 H-benzoylProPheArg is the most preferred substrate for assays where ACE activity is low and maximum sensitivity is desired. In addition to being less sensitive to competitive inhibition, assays carried out with this substrate are potentially able to measure lower levels of ACE than the other substrates disclosed herein. Additionally, its partition behavior in an aprotic organic solvent is extremely favorable: only about 3% entered ethyl acetate in a preliminary extraction experiment. The remnant product Benzoylproline was about 90% extracted.

[2] = Extraction (partition) into ethyl acetate; format: physicochemical
From the text: as §1
The remnant reaction product may be extracted from the reaction mixture by an aprotic organic solvent which affords a reasonably quantitative separation of product from substrate. The use of solvents which may interfere with the counting process is to be avoided. Ethyl acetate is preferred. Approximately 91% of ^3 H-Hippuric acid is extracted into ethyl acetate. Extraction may be carried out by any suitable means familiar to those skilled in the art, such as shaking, agitating, mixing and the like. Separation of the phases is conveniently accomplished by centrifugation. Centrifugation at 1000×G for ten minutes is preferred, either at room temperature or in a refrigerated centrifuge. In some cases, an emulsion will form which can be separated by a longer centrifugation step.
A control determination of background radioactivity was made using 50 μl. of reaction buffer instead of diluted serum in the reaction mixture. The purpose of this control was to determine the number of total counts attributable to background radiation, non-specific release of hippuric acid and the presence of unreacted substrate in the ethyl acetate phase. Less than 7% of the ^3 H-HipGly Gly entered the organic phase. Total radioactivity was determined by counting an amount of substrate equal to that used in the reaction mixture directly in the scintillation counter. […]

serum carboxypeptidase = assay: Sensitivity to serum carboxypeptidase; format: biochemical
[3] = tested on: angiotensin converting enzyme (ACE); settings: similar reaction conditions, enzyme from hog lung (Dorer et al.); cited from earlier work
[4] = molecular target: T1, angiotensin converting enzyme (ACE) (Homo sapiens, UniProt P12821); assay: ACE assay: hydrolysis of ^3H-HipGlyGly by human serum, Lineweaver-Burke Km; format: biochemical
T1 construct: Serum was prepared from fresh whole blood by standard techniques; from tissue; host or cells: serum (unfractionated)
Description: The following sample illustrates the preferred assay method, the sensitivity of the assay and the Km for ^3 H-HipGlyGly. The reaction buffer contains 0.05 M Hepes, 0.1 M sodium chloride and 0.6 M sodium sulphate at pH 8.0. (Pepes is N-2-Hydroxyethyl piperazine N'-2-ethane sulfonic acid.) The substrate, ^3 H-HipGlyGly was dissolved in reaction buffer at a concentration of 16 mM and a specific radioactivity of about 0.15 millicuries/millimole. Serum was prepared from fresh whole blood by standard techniques. […] Hemolyzed samples were not used in the assay. Serum samples could be stored at least for one week at 2° C. to 8° C. or for at least 8 weeks frozen, prior to assaying. For the assay, 50 μl. of serum was diluted with 200 μl. of reaction buffer. All the reactions were carried out in glass tubes due to the potentially destructive action of ethyl acetate on plastic.
The reaction mixture was composed of 50 μl. of diluted serum, an appropriate amount of substrate solution depending on the final substrate concentration desired, and reaction buffer sufficient to give a total reaction volume of 100 μl. All reaction tubes were incubated for 60 minutes at 37° C. Reactions were terminated by the addition of 1.0 ml. of 0.1 N hydrochloric acid. The reaction mixture was then extracted with 1.0 ml. ethyl acetate, by rotary agitation for 4-5 seconds. The phases were separted by centrifugation at 1000×G for ten minutes. A 0.5 ml. sample of the ethyl acetate (upper) layer was removed and tranferred to a scintillation vial containing 10 ml. scintillation fluid. (Riafluor, Trademark, New England Nuclear Corp., Boston, Mass.)
A control determination of background radioactivity was made using 50 μl. of reaction buffer instead of diluted serum in the reaction mixture. The purpose of this control was to determine the number of total counts attributable to background radiation, non-specific release of hippuric acid and the presence of unreacted substrate in the ethyl acetate phase. Less than 7% of the ^3 H-HipGly Gly entered the organic phase. Total radioactivity was determined by counting an amount of substrate equal to that used in the reaction mixture directly in the scintillation counter.
Reaction velocity, in terms of nanomoles of product formed per minute per ml of serum was calculated according to the following formula: [formula] In this formula, "nmoles" means nanomoles, "min" means minutes, "ml" means milliliters and "cpm" means radioactivity counts per minute. The factor of 2 is a correction for the aliquot size. In the case where a significant fraction of substrate has been hydrolyzed, and the substrate in one which is more soluble in the organic phase, as for example, ^125 I-HPPGlyGlyGly, a modified formula is used to take account of the decreasing amount of substrate as the reaction progresses: [formula]
Reciprocal values of initial substrate concentration and reaction velocity were calculated and graphed according to the method of Lineweaver and Burke, as shown in FIG. 1. A straight line was obtained, which intercepted the ordinate at a value equal to the reciprocal of the maximum velocity of the enzyme reaction and intercepted the abcissa at a value equal to the negative reciprocal of the apparent Michaelis constant. […] It can be seen that reaction velocities as low as 12 nanomoles of substrate hydrolyzed per minute per ml. of serum can readily be measured.

[5] = tested on: angiotensin converting enzyme (ACE); settings: HipGlyGly as substrate, cited from earlier work
[6] = molecular target: T2, angiotensin converting enzyme (ACE) (Cavia porcellus, UniProt H0UWL7); assay: Hydrolysis of ^125I-HPPGlyGlyGly by guinea pig serum ACE; format: biochemical
T2 construct: native circulating soluble form, expected to be shed somatic ACE
T2 sequence (H0UWL7 33-1234): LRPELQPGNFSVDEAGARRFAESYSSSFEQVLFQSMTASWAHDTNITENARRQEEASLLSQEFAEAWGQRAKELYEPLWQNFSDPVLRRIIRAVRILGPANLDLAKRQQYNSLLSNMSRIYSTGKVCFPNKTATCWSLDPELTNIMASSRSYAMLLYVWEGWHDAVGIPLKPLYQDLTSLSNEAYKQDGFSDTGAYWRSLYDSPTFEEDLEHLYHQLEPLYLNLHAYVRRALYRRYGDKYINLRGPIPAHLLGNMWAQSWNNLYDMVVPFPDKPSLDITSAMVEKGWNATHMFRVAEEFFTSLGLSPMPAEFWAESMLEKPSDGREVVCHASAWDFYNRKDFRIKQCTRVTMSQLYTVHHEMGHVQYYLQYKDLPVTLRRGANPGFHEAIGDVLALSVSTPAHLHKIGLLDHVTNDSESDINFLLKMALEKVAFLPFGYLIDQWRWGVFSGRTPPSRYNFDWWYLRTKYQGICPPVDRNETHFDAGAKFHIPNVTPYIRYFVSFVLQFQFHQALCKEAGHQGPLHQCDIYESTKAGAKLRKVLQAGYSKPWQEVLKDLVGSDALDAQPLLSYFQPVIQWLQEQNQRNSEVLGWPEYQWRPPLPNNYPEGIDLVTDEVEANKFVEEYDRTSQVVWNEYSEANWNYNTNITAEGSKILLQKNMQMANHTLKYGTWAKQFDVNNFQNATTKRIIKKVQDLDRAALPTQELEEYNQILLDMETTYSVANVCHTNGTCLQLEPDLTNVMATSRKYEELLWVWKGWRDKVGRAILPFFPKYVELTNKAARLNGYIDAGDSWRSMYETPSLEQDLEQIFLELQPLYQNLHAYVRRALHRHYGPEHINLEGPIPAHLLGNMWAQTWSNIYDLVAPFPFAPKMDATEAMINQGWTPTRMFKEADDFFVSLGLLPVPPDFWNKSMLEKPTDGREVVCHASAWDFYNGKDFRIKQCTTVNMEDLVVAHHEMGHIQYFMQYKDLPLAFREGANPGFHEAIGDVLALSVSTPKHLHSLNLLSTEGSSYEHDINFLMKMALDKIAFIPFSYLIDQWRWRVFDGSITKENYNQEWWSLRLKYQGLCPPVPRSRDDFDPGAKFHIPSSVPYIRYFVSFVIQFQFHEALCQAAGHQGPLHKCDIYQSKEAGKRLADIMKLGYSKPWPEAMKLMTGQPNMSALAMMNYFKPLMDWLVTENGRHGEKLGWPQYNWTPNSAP
Description: The standard assay conditions as described in Example 1 were employed except that the source of ACE was guinea pig serum and the amount of substrate added was that amount needed to give 101,436 total counts per minute. In terms of mass, this amount is believed to be well below the Km for the substrate. Samples were incubated for 15 minutes, 30 minutes and 60 minutes, and an unreacted sample (0 time) was used to determine the amount of substrate extracted into ethyl acetate.

T1 sequence (P12821 30-1232 limits assumed): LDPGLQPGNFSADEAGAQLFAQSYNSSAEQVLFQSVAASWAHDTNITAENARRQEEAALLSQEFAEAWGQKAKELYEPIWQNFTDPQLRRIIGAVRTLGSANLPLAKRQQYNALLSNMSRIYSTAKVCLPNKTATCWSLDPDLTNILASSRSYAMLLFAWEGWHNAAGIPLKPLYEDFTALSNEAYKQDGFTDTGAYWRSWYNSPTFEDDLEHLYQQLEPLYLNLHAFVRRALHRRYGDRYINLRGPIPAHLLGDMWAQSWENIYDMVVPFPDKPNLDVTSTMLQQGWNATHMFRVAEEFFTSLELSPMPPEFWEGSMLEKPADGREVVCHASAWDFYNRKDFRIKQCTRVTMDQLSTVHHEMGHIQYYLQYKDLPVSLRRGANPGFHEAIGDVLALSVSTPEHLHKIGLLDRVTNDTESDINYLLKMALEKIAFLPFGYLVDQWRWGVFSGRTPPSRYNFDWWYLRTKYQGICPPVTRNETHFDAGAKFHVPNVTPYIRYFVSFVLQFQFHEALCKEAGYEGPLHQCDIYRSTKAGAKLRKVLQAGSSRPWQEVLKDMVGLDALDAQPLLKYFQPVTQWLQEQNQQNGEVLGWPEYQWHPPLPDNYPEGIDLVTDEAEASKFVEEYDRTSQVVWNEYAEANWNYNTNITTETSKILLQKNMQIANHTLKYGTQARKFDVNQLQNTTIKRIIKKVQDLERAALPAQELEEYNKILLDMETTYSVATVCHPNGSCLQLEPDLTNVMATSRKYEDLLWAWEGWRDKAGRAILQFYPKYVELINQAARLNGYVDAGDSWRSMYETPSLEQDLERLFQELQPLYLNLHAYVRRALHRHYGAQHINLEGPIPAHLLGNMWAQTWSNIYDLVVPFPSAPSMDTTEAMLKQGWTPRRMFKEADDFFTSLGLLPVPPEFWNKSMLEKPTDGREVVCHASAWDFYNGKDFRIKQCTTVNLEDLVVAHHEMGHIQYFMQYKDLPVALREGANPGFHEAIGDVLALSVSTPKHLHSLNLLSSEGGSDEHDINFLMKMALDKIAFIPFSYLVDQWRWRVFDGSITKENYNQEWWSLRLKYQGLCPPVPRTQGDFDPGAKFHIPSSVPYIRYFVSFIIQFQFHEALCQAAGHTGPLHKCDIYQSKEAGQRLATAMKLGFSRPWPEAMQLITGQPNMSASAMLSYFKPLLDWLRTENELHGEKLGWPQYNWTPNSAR

## [3H]c1ccc(C(=O)NCC(=O)NCC(=O)NCC(=O)O)cc1 [^3 H-HipGlyGly, ^3 H-hippurylglycylglycine]
[1]
  Chloride / ionic strength requirement of the ACE-catalyzed hydrolysis: requires chloride ions
[2]
  Fraction extracted into ethyl acetate: Less than 7%
Serum carboxypeptidase
  Sensitivity to serum carboxypeptidase: insensitive to serum carboxypeptidase
[3]
  Km: 2600 µM
[4]; [S] 1.82 mM
  Reciprocal of reaction velocity: 0.0504
  Velocity: 19.83 nanomoles of product formed pe
[4]; [S] 3.64 mM
  Reciprocal of reaction velocity: 0.0289
  Velocity: 34.65 nanomoles of product formed pe
[4]; [S] 5.45 mM
  Reciprocal of reaction velocity: 0.0214
  Velocity: 46.76 nanomoles of product formed pe
[4]; [S] 7.27 mM
  Reciprocal of reaction velocity: 0.0191
  Velocity: 52.48 nanomoles of product formed pe
[4]; [S] 9.09 mM
  Reciprocal of reaction velocity: 0.0183
  Velocity: 54.63 nanomoles of product formed pe
[4]; [S] .91 mM
  Reciprocal of reaction velocity: 0.0810
  Velocity: 12.35 nanomoles of product formed pe
[4]; assay condition of Example 1
  Assay sensitivity (lowest measurable enzyme activity): 8 units of enzyme per ml
[5]; 1 M NaCl
  pH range with greater than 50% maximal activity: 7.0-9.0
[5]; Dorer et al.
  pH optimum of ACE-catalyzed hydrolysis: approximately 8.0

## O=C(O)CNC(=O)CNC(=O)CNC(=O)CCc1ccc(O)c([125I])c1 [^125 I-HPPGlyGlyGly, ^125 I-p-hydroxyphenylpropionylglycylglycylglycine]
[1]
  Chloride / ionic strength requirement of the ACE-catalyzed hydrolysis: requires chloride ions
[2]
  Fraction extracted into ethyl acetate: 27.2%
Serum carboxypeptidase
  Sensitivity to serum carboxypeptidase: insensitive to serum carboxypeptidase
[6]; incubation 0 min
  Net cpm in product: 0 cpm
  cpm in Ethyl Acetate phase: 27,205 cpm
[6]; incubation 15 min
  Net cpm in product: 17,808 cpm
  cpm in Ethyl Acetate phase: 40,000 cpm
[6]; incubation 30 min
  Net cpm in product: 43,804 cpm
  cpm in Ethyl Acetate phase: 59,182 cpm
[6]; incubation 60 min
  Net cpm in product: 58,044 cpm
  cpm in Ethyl Acetate phase: 69,577 cpm
